Assay results taken from ChEMBL document CHEMBL4229426, “Synthesis, antitumor activity evaluation and mechanistic study of novel hederacolchiside A1 derivatives bearing an aryl triazole moiety” (Bioorg Med Chem, 2018).
Active and inactive are the calls of the source. No cut-off for these calls is given here.

Columns and labels:
[1] = test system: HepG2; experiment: Induction of mitochondrial membrane depolarization in human HepG2 cells at 0.5 uM after 48 hrs by JC-1 staining based flow cytometry (reference value: 1.3%); assay type: functional
[2] = test system: HepG2; experiment: Induction of apoptosis in human HepG2 cells assessed as necrotic cells at 0.5 uM after 48 hrs by Annexin V-FITC/propidium iodide staining based flow cytometry (reference value: 0.06%); assay type: functional
[3] = test system: HepG2; experiment: Induction of apoptosis in human HepG2 cells assessed as early apoptotic cells at 0.5 uM after 48 hrs by Annexin V-FITC/propidium iodide staining based flow cytometry (reference value: 4.42%); assay type: functional
[4] = test system: HepG2; experiment: Cell cycle arrest in human HepG2 cells assessed as accumulation at G2-phase at 2 uM after 48 hrs by propidium iodide staining based flow cytometry (reference value: 32.61%); assay type: functional
[5] = test system: HepG2; experiment: Cell cycle arrest in human HepG2 cells assessed as accumulation at G2-phase at 0.5 uM after 48 hrs by propidium iodide staining based flow cytometry (reference value: 32.61%); assay type: functional
[6] = test system: HepG2; experiment: Cell cycle arrest in human HepG2 cells assessed as accumulation at G1-phase at 2 uM after 48 hrs by propidium iodide staining based flow cytometry (reference value: 40.6%); assay type: functional
[7] = test system: HepG2; experiment: Induction of apoptosis in human HepG2 cells assessed as early apoptotic cells at 2 uM after 48 hrs by Annexin V-FITC/propidium iodide staining based flow cytometry (reference value: 4.42%); assay type: functional
[8] = test system: HepG2; experiment: Induction of mitochondrial membrane depolarization in human HepG2 cells at 2 uM after 48 hrs by JC-1 staining based flow cytometry (reference value: 1.3%); assay type: functional
[9] = test system: HepG2; experiment: Induction of apoptosis in human HepG2 cells assessed as late apoptotic cells at 0.5 uM after 48 hrs by Annexin V-FITC/propidium iodide staining based flow cytometry (reference value: 0.02%); assay type: functional
[10] = test system: U-937; experiment: Antiproliferative activity against human U937 cells after 48 hrs by MTT assay; assay type: functional, cell-based; details: U-937, 48 h
[11] = test system: HepG2; experiment: Cell cycle arrest in human HepG2 cells assessed as accumulation at S-phase at 0.5 uM after 48 hrs by propidium iodide staining based flow cytometry (reference value: 26.79%); assay type: functional
[12] = test system: HepG2; experiment: Upregulation of cytochrome-c protein expression in human HepG2 cells after 48 hrs by Western blot analysis; assay type: functional, cell-based
[13] = test system: PC-3; experiment: Antiproliferative activity against human PC3 cells after 48 hrs by MTT assay; assay type: functional, cell-based; details: PC-3, 48 h
[14] = test system: HL-60; experiment: Antiproliferative activity against human HL60 cells after 48 hrs by MTT assay; assay type: functional, cell-based; details: HL-60, 48 h
[15] = test system: HepG2; experiment: Induction of apoptosis in human HepG2 cells assessed as live cells at 2 uM after 48 hrs by Annexin V-FITC/propidium iodide staining based flow cytometry (reference value: 95.5%); assay type: functional
[16] = test system: HepG2; experiment: Upregulation of cytochrome-c protein expression in human HepG2 cells assessed as ratio of cytochrome-c to GAPDH expression level at 0.5 to 2 uM after 48 hrs by Western blot analysis (reference value: 0.05); assay type: functional
[17] = test system: HepG2; experiment: Induction of apoptosis in human HepG2 cells assessed as late apoptotic cells at 1 uM after 48 hrs by Annexin V-FITC/propidium iodide staining based flow cytometry (reference value: 0.02%); assay type: functional
[18] = test system: HepG2; experiment: Cell cycle arrest in human HepG2 cells assessed as accumulation at G2-phase at 1 uM after 48 hrs by propidium iodide staining based flow cytometry (reference value: 32.61%); assay type: functional
[19] = test system: HepG2; experiment: Induction of apoptosis in human HepG2 cells assessed as necrotic cells at 2 uM after 48 hrs by Annexin V-FITC/propidium iodide staining based flow cytometry (reference value: 0.06%); assay type: functional
[20] = test system: HT-29; experiment: Antiproliferative activity against human HT-29 cells after 48 hrs by MTT assay; assay type: functional, cell-based; details: HT-29, 48 h
[21] = test system: HepG2; experiment: Cell cycle arrest in human HepG2 cells assessed as accumulation at S-phase at 1 uM after 48 hrs by propidium iodide staining based flow cytometry (reference value: 26.79%); assay type: functional
[22] = test system: HepG2; experiment: Induction of apoptosis in human HepG2 cells assessed as live cells at 0.5 uM after 48 hrs by Annexin V-FITC/propidium iodide staining based flow cytometry (reference value: 95.5%); assay type: functional
[23] = test system: HepG2; experiment: Induction of mitochondrial membrane depolarization in human HepG2 cells at 1 uM after 48 hrs by JC-1 staining based flow cytometry (reference value: 1.3%); assay type: functional
[24] = test system: HepG2; experiment: Downregulation of Bcl2 protein expression in human HepG2 cells assessed as ratio of Bcl2 to GAPDH expression level at 1 uM after 48 hrs by Western blot analysis (reference value: 0.97); assay type: functional
[25] = test system: HepG2; experiment: Induction of apoptosis in human HepG2 cells assessed as late apoptotic cells at 2 uM after 48 hrs by Annexin V-FITC/propidium iodide staining based flow cytometry (reference value: 0.02%); assay type: functional
[26] = test system: HepG2; experiment: Cell cycle arrest in human HepG2 cells assessed as accumulation at G1-phase at 1 uM after 48 hrs by propidium iodide staining based flow cytometry (reference value: 40.6%); assay type: functional
[27] = test system: HepG2; experiment: Upregulation of caspase-9 protein expression in human HepG2 cells assessed as ratio of caspase-9 to GAPDH expression level at 1 uM after 48 hrs by Western blot analysis (reference value: 0.17); assay type: functional
[28] = test system: A549; experiment: Antiproliferative activity against human A549 cells after 48 hrs by MTT assay; assay type: functional, cell-based; details: A549, 48 h
[29] = test system: HepG2; experiment: Induction of apoptosis in human HepG2 cells assessed as early apoptotic cells at 1 uM after 48 hrs by Annexin V-FITC/propidium iodide staining based flow cytometry (reference value: 4.42%); assay type: functional
[30] = test system: HepG2; experiment: Induction of apoptosis in human HepG2 cells assessed as necrotic cells at 1 uM after 48 hrs by Annexin V-FITC/propidium iodide staining based flow cytometry (reference value: 0.06%); assay type: functional
[31] = test system: HepG2; experiment: Upregulation of caspase-9 protein expression in human HepG2 cells at 2 uM after 48 hrs by Western blot analysis; assay type: functional, cell-based
[32] = test system: HepG2; experiment: Cell cycle arrest in human HepG2 cells after 48 hrs by propidium iodide staining based flow cytometry; assay type: functional
[33] = test system: HepG2; experiment: Cell cycle arrest in human HepG2 cells assessed as accumulation at G1-phase at 0.5 uM after 48 hrs by propidium iodide staining based flow cytometry (reference value: 40.6%); assay type: functional
[34] = test system: HepG2; experiment: Upregulation of caspase-3 protein expression in human HepG2 cells assessed as ratio of caspase-3 to GAPDH expression level at 2 uM after 48 hrs by Western blot analysis (reference value: 0.25); assay type: functional
[35] = test system: HepG2; experiment: Antiproliferative activity against human HepG2 cells after 48 hrs by MTT assay; assay type: functional, cell-based; details: HepG2, 48 h
[36] = test system: HepG2; experiment: Downregulation of Bcl2 protein expression in human HepG2 cells assessed as ratio of Bcl2 to GAPDH expression level at 2 uM after 48 hrs by Western blot analysis (reference value: 0.97); assay type: functional
[37] = test system: HepG2; experiment: Cell cycle arrest in human HepG2 cells assessed as accumulation at S-phase at 2 uM after 48 hrs by propidium iodide staining based flow cytometry (reference value: 26.79%); assay type: functional
[38] = test system: HepG2; experiment: Induction of apoptosis in human HepG2 cells assessed as live cells at 1 uM after 48 hrs by Annexin V-FITC/propidium iodide staining based flow cytometry (reference value: 95.5%); assay type: functional
[39] = test system: HepG2; experiment: Induction of mitochondrial membrane depolarization in human HepG2 cells after 48 hrs by JC-1 staining based flow cytometry; assay type: functional, cell-based
[40] = test system: HepG2; experiment: Downregulation of Bcl2 protein expression in human HepG2 cells assessed as ratio of Bcl2 to GAPDH expression level at 0.5 uM after 48 hrs by Western blot analysis (reference value: 0.97); assay type: functional

Compound: Cc1ccc(-n2cc(CNC(=O)[C@]34CCC(C)(C)C[C@H]3C3=CC[C@@H]5[C@@]6(C)CC[C@H](O[C@@H]7OC[C@H](O[C@@H]8O[C@H](CO)[C@@H](O)[C@H](O)[C@H]8O)[C@H](O)[C@H]7O[C@@H]7O[C@@H](C)[C@H](O)[C@@H](O)[C@H]7O)C(C)(C)[C@@H]6CC[C@@]5(C)[C@]3(C)CC4)nn2)cc1
- Activity [1]: 15.98%
- Activity [2]: 0.3%
- Activity [3]: 17.87%
- Activity [4]: 11.33%
- Activity [5]: 18.01%
- Activity [6]: 49.35%
- Activity [7]: 21.07%
- Activity [8]: 54.12%
- Activity [9]: 6.89%
- IC50 [10]: 730 nM
- Activity [11]: 33.29%
- Activity [12]: Dose-dependent effect
- IC50 [13]: 540 nM
- IC50 [14]: 810 nM
- Activity [15]: 41.56%
- Ratio [16]: 0.4
- Activity [17]: 21.58%
- Activity [18]: 15.68%
- Activity [19]: 1.51%
- IC50 [20]: 930 nM
- Activity [21]: 35.92%
- Activity [22]: 74.94%
- Activity [23]: 33.51%
- Ratio [24]: 0.47
- Activity [25]: 35.77%
- Activity [26]: 48.4%
- Ratio [27]: 0.45
- IC50 [28]: 2660 nM
- Activity [29]: 24.76%
- Activity [30]: 0.56%
- Activity [31]: Active
- Activity [32]: Dose-dependent effect
- Activity [33]: 48.7%
- Ratio [34]: 0.63
- IC50 [35]: 540 nM
- Ratio [36]: 0.19
- Activity [37]: 39.32%
- Activity [38]: 53.1%
- Activity [39]: Dose-dependent effect
- Ratio [40]: 0.64
